Assay results published in patent US20220257580A1, “TREATMENT OF C3 GLOMERULOPATHY USING A C5A INHIBITOR” (CHEMOCENTRYX, INC., priority 2020, published 2022).
Entries after “also recorded” stand apart in the source; their conditions may differ.

What was measured:
Format in all cases: in vivo, human
[1] = system: patients with C3 glomerulopathy; assay: Phase 2 placebo-controlled study (ACCOLADE): safety and tolerability; settings: patients with C3G
From the text: The secondary objectives of this study include assessment of: • 1. The safety of compound 1 compared to placebo based on the incidence of adverse events, changes in clinical laboratory measurements, and vital signs; • 2. Changes in laboratory parameters of renal disease including estimated glomerular filtration rate (eGFR), proteinuria, and urinary excretion of monocyte chemoattractant protein-1 (MCP-1) with compound 1 compared to placebo; • 3. Health-related quality-of-life changes based on Short Form-36 version 2 (SF-36 v2) and EuroQOL-5D-5L (EQ-5D-5L) with compound 1 compared to placebo; • 4. Evaluation of the pharmacokinetic profile of compound 1 in patients with C3 glomerulopathy.
Safety assessments include adverse events, physical examination abnormalities, vital signs, and clinical laboratory tests (including blood chemistry, hematology, and urinalysis).
Safety endpoints include: • 1. Patient incidence of treatment-emergent serious adverse events, adverse events, and withdrawals due to adverse events; • 2. Change from baseline and shifts from baseline in all safety laboratory parameters; • 3. Change from baseline in vital signs.

[2] = system: patient with progressive complement 3 (C3) glomerulonephritis (recurrent C3GN in a renal transplant); assay: Special Needs program study of compound 1 in one patient: eGFR and proteinuria; settings: for eGFR decline / eGFR: eGFR 83 mL/min/1.73 m^2 14 months prior, 46 at start of treatment
From the text: Under the Special Needs program in the United Kingdom (which is similar to a compassionate use protocol in the US), a C3 glomerulonephritis patient received treatment with the orally administered complement inhibitor compound 1, following the protocol detailed below. The patient had refractory disease despite a kidney transplant and prior treatment with the broadly immunosuppressive drugs rituximab, cyclophosphamide, mycophenolate mofetil, tacrolimus, and steroids. Renal allograft biopsies were taken pre-dose, 2 and 7 months during therapy. The primary efficacy objective is to evaluate the efficacy of compound 1 based on change from baseline in eGFR (MDRD, Estimated Glomerular Filtration Rate) and proteinuria. This is a clinical study to test the safety, tolerability, and efficacy of compound 1 in a patient with recurrent […] in a renal transplant. The patient will have biopsy proven recurrent […] prior to start of dosing, and be deemed eligible based on the inclusion and exclusion criteria. Screening procedures will include recording of demographics, medical history, medication history, physical examination and vital signs, serum chemistry, hematology, urinalysis (including UPCR measurement), viral screening (if not performed within prior 12 weeks), and estimated glomerular filtration rate (eGFR) assessment based on serum creatinine. The baseline eGFR needs to be at least 25 mL/min/1.73 m^2 for study eligibility. On Day 1, the patient will start compound 1 treatment. Patients will take compound 1 30 mg orally twice daily for an initial period of 84 days. The patient will visit the study center on Days 1, 8, 15, 29, 57, and 85. The compound 1 dose will be taken in the morning optimally within one hour after breakfast and in the evening optimally within one hour after dinner. If the patient's clinical condition stabilizes or improves, and there are no adverse events preventing further treatment, the patient may be treated for another 84-day treatment cycle. The 84-day cycles may be repeated for a total of up to 4 cycles under this protocol. For the 84-day cycles after the first cycle, the patient will visit the study center every 4 weeks. There will be 4-week follow-up period after the patient stops the compound 1 treatment. Efficacy assessments include: • 1. First morning urinary PCR or ACR; • 2. eGFR by Modification of Diet in Renal Disease (MDRD) formula based on serum creatinine; • 3. Plasma and urine pharmacodynamic markers, e.g., MCP-1, C3a, C5a, properdin, and sC5b-9; • 4. Glomerular inflammation (e.g., crescents, inflammatory cell infiltrate, endocapillary proliferation) and C3 deposition in a follow-up renal biopsy sample;

[3] = system: patients with C3 glomerulopathy; assay: Phase 2 placebo-controlled study (ACCOLADE): eGFR, urinary PCR, urinary MCP-1:creatinine ratio
From the text: The secondary objectives of this study include assessment of: • 1. The safety of compound 1 compared to placebo based on the incidence of adverse events, changes in clinical laboratory measurements, and vital signs; • 2. Changes in laboratory parameters of renal disease including estimated glomerular filtration rate (eGFR), proteinuria, and urinary excretion of monocyte chemoattractant protein-1 (MCP-1) with compound 1 compared to placebo; • 3. Health-related quality-of-life changes based on Short Form-36 version 2 (SF-36 v2) and EuroQOL-5D-5L (EQ-5D-5L) with compound 1 compared to placebo; • 4. Evaluation of the pharmacokinetic profile of compound 1 in patients with C3 glomerulopathy. Patients will then be randomized, 1:1, to receive 30 mg compound 1 twice daily or matching placebo for 26 weeks in a double-blind, placebo-controlled manner. The 26-week double-blind period will be followed by a 26-week period during which all patients will receive compound 1 treatment. Efficacy assessments include: • 1. Renal histology to determine the C3G Histologic Index (CHI) for disease activity and chronicity; • 2. eGFR calculated by the Modification of Diet in Renal Disease (MDRD) equation from serum creatinine; • 3. First morning urinary PCR; • 4. First morning urinary MCP-1:creatinine ratio; • 5. EQ-5D-5L and SF-36 v2. Other efficacy endpoints include: • 1. The percent change from baseline in the CHI for disease chronicity over the placebo-controlled 26-week treatment period; • 2. The change and percent change from baseline in eGFR over the placebo-controlled 26-week treatment period; • 3. The percent change from baseline in urinary PCR over the placebo-controlled 26-week treatment period; • 4. The percent change from baseline in urinary MCP-1:creatinine ratio over the placebo-controlled 26-week treatment period; • 5. Change from baseline in EQ-5D-5L and SF-36 v2 (domains and component scores) over the placebo-controlled 26-week treatment period. Continuous variables, including eGFR, urinary PCR, urinary MCP-1:creatinine ratio, EQ-5D-5L, and SF-36 v2 will be analyzed using a mixed effects model for repeated measures ([…]) with treatment group, visit, treatment-by-visit interaction, and randomization strata (C3GN or DDD, and renal transplant or not) as factors, and baseline as covariate. Patients will be considered as repeated measure units over visits. Point estimates and corresponding 95% confidence intervals will be estimated for the difference between the compound 1 group and the control group across 26 weeks using simple contrast from the model. Similar to the primary endpoint, the second 26 weeks will be compared to the first 26 weeks for the placebo group.

[4] = system: patients with C3 glomerulopathy; assay: Phase 2 placebo-controlled study (ACCOLADE): C3G Histologic Index from kidney biopsies
Method: The primary objective is to evaluate the efficacy of compound 1 compared to placebo based on histologic changes in C3G pathology from kidney biopsies taken before and during treatment. Patients will then be randomized, 1:1, to receive 30 mg compound 1 twice daily or matching placebo for 26 weeks in a double-blind, placebo-controlled manner. The 26-week double-blind period will be followed by a 26-week period during which all patients will receive compound 1 treatment. Efficacy assessments include: • 1. Renal histology to determine the C3G Histologic Index (CHI) for disease activity and chronicity; • 2. eGFR calculated by the Modification of Diet in Renal Disease (MDRD) equation from serum creatinine; • 3. First morning urinary PCR; • 4. First morning urinary MCP-1:creatinine ratio; • 5. EQ-5D-5L and SF-36 v2. All renal biopsies will also be analyzed based on hematoxylin-eosin (H&E) staining, periodic acid-Schiff (PAS) staining, trichrome, and Jones methenamine silver staining. These renal biopsies will be evaluated by a central reader, blinded to treatment assignment from either slides or high-resolution electronic images. The central reader will determine the degree of disease activity and chronicity. The primary efficacy endpoint is the percent change from baseline to week 26 in the C3G Histologic Index (CHI) for disease activity. The compound 1 and placebo groups will be compared by ANCOVA with treatment group and randomization strata (C3GN or DDD, and renal transplant or not) as factors, and baseline as covariate. Point estimates and corresponding 95% confidence intervals will be estimated for the difference between the compound 1 and placebo control group. Other efficacy endpoints include: • 1. The percent change from baseline in the CHI for disease chronicity over the placebo-controlled 26-week treatment period; • 2. The change and percent change from baseline in eGFR over the placebo-controlled 26-week treatment period; • 3. The percent change from baseline in urinary PCR over the placebo-controlled 26-week treatment period; • 4. The percent change from baseline in urinary MCP-1:creatinine ratio over the placebo-controlled 26-week treatment period; • 5. Change from baseline in EQ-5D-5L and SF-36 v2 (domains and component scores) over the placebo-controlled 26-week treatment period. The primary endpoint of the study was change from baseline to week 26 in the C3G Histologic Index for Disease Activity, comparing the changes in kidney histology from biopsy sections taken from patients characterized by elevated levels of C5b-9 complement markers in the blood at time of study entry (baseline).

[5] = system: patient with progressive complement 3 (C3) glomerulonephritis (recurrent C3GN in a renal transplant); assay: Special Needs program study of compound 1 in one patient: renal allograft biopsy histology; settings: for Endocapillary hypercellularity/total: pre-treatment 3/11; for CD68-positive cells/glomerulus: pre-treatment 11; for Immunoflourescence microscopy, IgM: pre-treatment trace
From the text: Under the Special Needs program in the United Kingdom (which is similar to a compassionate use protocol in the US), a C3 glomerulonephritis patient received treatment with the orally administered complement inhibitor compound 1, following the protocol detailed below. The patient had refractory disease despite a kidney transplant and prior treatment with the broadly immunosuppressive drugs rituximab, cyclophosphamide, mycophenolate mofetil, tacrolimus, and steroids. Renal allograft biopsies were taken pre-dose, 2 and 7 months during therapy. At the Day 1 and post-Day 1 study visits, blood and urine samples will be collected for safety, efficacy, and pharmacokinetic measurements. Physical examinations and vital signs assessments will be performed throughout the study. Concomitant medication and adverse event assessments will be made at every study visit. If at all possible, a renal biopsy will be performed after an appropriate follow-up period to assess the changes in kidney histology. Efficacy assessments include: • 1. First morning urinary PCR or ACR; • 2. eGFR by Modification of Diet in Renal Disease (MDRD) formula based on serum creatinine; • 3. Plasma and urine pharmacodynamic markers, e.g., MCP-1, C3a, C5a, properdin, and sC5b-9; • 4. Glomerular inflammation (e.g., crescents, inflammatory cell infiltrate, endocapillary proliferation) and C3 deposition in a follow-up renal biopsy sample; Renal biopsies will be analyzed by periodic acid-Schiff (PAS) staining, immunofluorescence staining for C3, C5b-9, and potentially other markers. Electron microscopy may also be performed.

SMILES: Cc1ccc(NC(=O)[C@H]2CCCN(C(=O)c3c(C)cccc3F)[C@H]2c2ccc(NC3CCCC3)cc2)cc1C(F)(F)F [Compound 1, avacopan]
- safety and tolerability [1]: safe and well-tolerated
- eGFR decline ([2]; after 1 month of treatment): attenuated
- Proteinuria drop ([2]; single C3GN patient, compound 1 30 mg orally twice daily): approximately 80%
- eGFR decline / eGFR ([2]; single C3GN patient): stabilized eGFR
- eGFR decline / eGFR ([2]; single C3GN patient, listed as compound 1): attenuated or stopped
- Urinary MCP-1:Creatinine Ratio Percent Change from Baseline ([3]; 26-week treatment period, placebo 1%): −12%
- Urinary Protein:Creatinine Ratio (Proteinuria) Percent Change from Baseline ([3]; 26-week treatment period, placebo −14%): −26%
- eGFR improvement from baseline ([3]; 26 weeks, subjects with eGFR <60 mL/min/1.73 m^2 at baseline, placebo 6% worsening, P=0.0199): 13%
- eGFR mean increase ([3]; 26 weeks, subjects with eGFR <60 mL/min/1.73 m^2 at baseline, placebo decrease of 1.4): about 5 mL/min/1.73 m^2
- eGFR average increase relative to placebo ([3]; after 26 weeks, subjects with eGFR <60 mL/min/1.73 m^2 at baseline): ~20%
- eGFR improvement on average from baseline ([3]; baseline to week 26, overall, placebo worsened by 6%, P=0.0221): 5%
- UPCR (proteinuria) reduction from baseline ([3]; end of 26 weeks, placebo 14%): 26%
- urinary MCP-1 creatinine ratio versus the placebo group ([3]; throughout the 26-week treatment period): consistently exhibiting lower levels
- UPCR (proteinuria) mean decrease from baseline ([3]; week 16, placebo 1% decrease, P<0.05): 35%
- C3G Index for Disease Chronicity, higher change in placebo group than avacopan ([4]; baseline to Week 26): 26 percentage point
- C3G Histologic Index for Disease Chronicity, change from baseline ([4]; baseline to Week 26, increase = worsening, placebo 58%): 32%
- C3G Histologic Index for Disease Activity (C3G Activity Score), improvement on average ([4]; baseline to week 26, all C3G subjects (elevated and normal C5b-9), placebo worsened by 26%): 6%
- C3G Activity Score, average difference between the two treatment arms ([4]; baseline to week 26, elevated C5b-9 patients, avacopan vs placebo, not statistically significant): approximately 40%
- C3G Histologic Index for Disease Activity (C3G Activity Score), improvement on average ([4]; baseline to week 26, patients with elevated C5b-9 at baseline, placebo worsened by 38%): 2%
- C3G Histologic Index for Disease Chronicity, mean change from baseline ([4]; baseline to week 26, placebo 1.6, P<0.05): 0.8
- Endocapillary hypercellularity/total ([5]; 2 months of therapy): 0/36
- CD68-positive cells/glomerulus ([5]; 2 months of therapy): 2-3
- Immunoflourescence microscopy, IgM ([5]; 2 months of therapy): neg
- Endocapillary hypercellularity/total ([5]; 7 months of therapy): 0/14
- CD68-positive cells/glomerulus ([5]; 7 months of therapy): 1-2
- Immunoflourescence microscopy, IgM ([5]; 7 months of therapy): neg
- glomerular inflammation ([5]; on-treatment biopsy compared to pre-treatment): reduced glomerular inflammation
- glomerular endocapillary proliferation / hypercellularity ([5]; on-treatment kidney biopsy compared to pre-treatment biopsy): clearance of glomerular endocapillary proliferation; also recorded: resolution of glomerular endocapillary hypercellularity; also recorded: reduction in endocapillary hypercellularity
- glomerular inflammatory macrophages ([5]; on-treatment kidney biopsy compared to pre-treatment biopsy, CD68 staining): marked decrease; also recorded: reduction in glomerular macrophages
